From PubChem BioAssay AID196 (DTP/NCI, 2004)
Where “and” joins values, the source holds several entries; their conditions need not be identical. Equal values may be shown once. Toxic doses and inconclusive results are not listed.

Test system: BDF1 mice, intracerebral B16 melanoma, median survival T/C
Assay: NCI In Vivo Anticancer Drug Screen. Data for tumor model B16 Melanoma (intracerebral) in B6D2F1 (BDF1) mice
Conditions: endpoint: median survival time, higher = longer survival
Protocol: The antitumor activity of compounds was measured in mice bearing transplantable tumors. Survival or tumor size were measured and the results are expressed as the measurement made in the treated group (T) divided by the measurement made in the vehicle treated control group (C). The tumor model used in this assay is B16 Melanoma (intracerebral) in B6D2F1 (BDF1) mice

[1] = dose: 16.0 mg/kg/injection, schedule: Q01DX009 (ip), vehicle: saline with Tween-80
[2] = dose: 17.8 mg/kg/injection, schedule: Q01DX001 (ip), vehicle: Klucel (hydroxypropylcellulose) (HPC)
[3] = dose: 32.0 mg/kg/injection, schedule: Q04DX003 (ip), vehicle: saline
[4] = dose: 40.0 mg/kg/injection, schedule: Q01DX001 (ip), vehicle: Klucel (hydroxypropylcellulose) (HPC)
[5] = dose: 60.0 mg/kg/injection, schedule: Q01DX001 (ip), vehicle: Klucel (hydroxypropylcellulose) (HPC)
[6] = dose: 90.0 mg/kg/injection, schedule: Q01DX001 (ip), vehicle: Klucel (hydroxypropylcellulose) (HPC)
[7] = dose: 0.5 mg/kg/injection, schedule: Q01DX009 (ip), vehicle: saline
[8] = dose: 1.0 mg/kg/injection, schedule: Q01DX009 (ip), vehicle: saline
[9] = dose: 2.0 mg/kg/injection, schedule: Q01DX009 (ip), vehicle: saline
[10] = dose: 4.0 mg/kg/injection, schedule: Q01DX009 (ip), vehicle: saline
[11] = dose: 1.0 mg/kg/injection, schedule: Q01DX009 (ip), vehicle: saline with Tween-80
[12] = dose: 2.0 mg/kg/injection, schedule: Q01DX009 (ip), vehicle: saline with Tween-80
[13] = dose: 4.0 mg/kg/injection, schedule: Q01DX009 (ip), vehicle: saline with Tween-80

O=NN(CCCl)C(=O)NC1CCCCC1
T/C (dose: 2.0 mg/kg/injection, schedule: Q01DX009 (ip), vehicle: Klucel (hydroxypropylcellulose) (HPC)): 116 % of control
T/C (dose: 2.4 mg/kg/injection, schedule: Q01DX001 (ip), vehicle: other): 116 % of control
T/C (dose: 4.0 mg/kg/injection, schedule: Q01DX009 (ip), vehicle: other): 124 % of control
T/C (dose: 4.7 mg/kg/injection, schedule: Q01DX001 (ip), vehicle: other): 100 % of control
T/C (dose: 7.5 mg/kg/injection, schedule: Q01DX009 (ip), vehicle: saline): 118 % of control
T/C (dose: 8.0 mg/kg/injection, schedule: Q01DX009 (ip), vehicle: Klucel (hydroxypropylcellulose) (HPC)): 161 % of control
T/C (dose: 8.0 mg/kg/injection, schedule: Q04DX003 (ip), vehicle: Klucel (hydroxypropylcellulose) (HPC)): 102 % of control
T/C (dose: 9.5 mg/kg/injection, schedule: Q01DX001 (ip), vehicle: other): 121 % of control
T/C (dose: 13.0 mg/kg/injection, schedule: Q01DX001 (ip), vehicle: other): 118 % of control
T/C (dose: 15.0 mg/kg/injection, schedule: Q01DX009 (ip), vehicle: saline): 150 % of control
T/C (dose: 16.0 mg/kg/injection, schedule: Q01DX009 (ip), vehicle: Klucel (hydroxypropylcellulose) (HPC)): 154 % of control
T/C (dose: 16.0 mg/kg/injection, schedule: Q01DX009 (ip), vehicle: other): 118 % of control
T/C [1]: 213 % of control
T/C (dose: 16.0 mg/kg/injection, schedule: Q04DX003 (ip), vehicle: Klucel (hydroxypropylcellulose) (HPC)): 102 % of control
T/C [2]: 113 % of control
T/C (dose: 18.9 mg/kg/injection, schedule: Q01DX001 (ip), vehicle: other): 123 % of control
T/C (dose: 30.0 mg/kg/injection, schedule: Q01DX009 (ip), vehicle: saline): 290 % of control
T/C (dose: 32.0 mg/kg/injection, schedule: Q01DX009 (ip), vehicle: Klucel (hydroxypropylcellulose) (HPC)): 95 % of control
T/C [3]: 220 % of control
T/C (dose: 36.0 mg/kg/injection, schedule: Q01DX001 (ip), vehicle: Klucel (hydroxypropylcellulose) (HPC)): 224 % of control
T/C (dose: 36.0 mg/kg/injection, schedule: Q01DX001 (ip), vehicle: other): 338 % of control
T/C (dose: 37.8 mg/kg/injection, schedule: Q01DX001 (ip), vehicle: other): 173 % of control
T/C [4]: 150 % of control
T/C [5]: 202 % of control and 212 % of control
T/C [6]: 90 % of control

O=C(O)CC(NC(=O)CP(=O)(O)O)C(=O)O (stereo not drawn)
T/C [3]: 101 % of control
T/C (dose: 64.0 mg/kg/injection, schedule: Q04DX003 (ip), vehicle: saline): 96 % of control
T/C (dose: 128.0 mg/kg/injection, schedule: Q04DX003 (ip), vehicle: saline): 90 % of control
T/C (dose: 256.0 mg/kg/injection, schedule: Q04DX003 (ip), vehicle: saline): 101 % of control
T/C (dose: 512.0 mg/kg/injection, schedule: Q04DX003 (ip), vehicle: saline): 104 % of control
T/C (dose: 1024.0 mg/kg/injection, schedule: Q04DX003 (ip), vehicle: saline): 110 % of control

CCCCN(C)N=Nc1ccc([N+](=O)[O-])cc1C(N)=O
T/C (dose: 32.0 mg/kg/injection, schedule: Q01DX005 (ip), vehicle: saline with Tween-80): 121 % of control
T/C (dose: 64.0 mg/kg/injection, schedule: Q01DX005 (ip), vehicle: saline with Tween-80): 116 % of control
T/C (dose: 256.0 mg/kg/injection, schedule: Q01DX005 (ip), vehicle: saline with Tween-80): 154 % of control
T/C (dose: 512.0 mg/kg/injection, schedule: Q01DX005 (ip), vehicle: saline with Tween-80): 152 % of control

O=[N+]([O-])O.[Ga]
T/C (dose: 32.0 mg/kg/injection, schedule: Q01DX005 (ip), vehicle: saline): 112 % of control
T/C (dose: 64.0 mg/kg/injection, schedule: Q01DX005 (ip), vehicle: saline): 93 % of control and 112 % of control
T/C (dose: 128.0 mg/kg/injection, schedule: Q01DX005 (ip), vehicle: saline): 103 % of control

CN(CO)c1nc(N(C)CO)nc(N(C)CO)n1
T/C (dose: 50.0 mg/kg/injection, schedule: Q01DX009 (ip), vehicle: Klucel (hydroxypropylcellulose) (HPC)): 100 % of control and 104 % of control
T/C (dose: 100.0 mg/kg/injection, schedule: Q01DX009 (ip), vehicle: Klucel (hydroxypropylcellulose) (HPC)): 120 % of control and 106 % of control

N[C@@H](Cc1ccc(N(CCCl)CCCl)cc1)C(=O)O
T/C [7]: 95 % of control
T/C (dose: 0.5 mg/kg/injection, schedule: Q01DX009 (ip), vehicle: water): 100 % of control
T/C [8]: 100 % of control
T/C (dose: 1.0 mg/kg/injection, schedule: Q01DX009 (ip), vehicle: water): 104 % of control
T/C [9]: 120 % of control
T/C (dose: 2.0 mg/kg/injection, schedule: Q01DX009 (ip), vehicle: water): 116 % of control
T/C [10]: 87 % of control

NC(=O)N(CCCl)N=O
T/C (dose: 1.0 mg/kg/injection, schedule: Q01DX001 (ip), vehicle: saline + alcohol): 102 % of control
T/C (dose: 2.0 mg/kg/injection, schedule: Q01DX001 (ip), vehicle: saline + alcohol): 112 % of control
T/C (dose: 4.0 mg/kg/injection, schedule: Q01DX001 (ip), vehicle: saline + alcohol): 121 % of control

Cc1ccc2c(c1)Sc1ccc(N=NN(C)C)cc1N2C
T/C (dose: 6.25 mg/kg/injection, schedule: Q01DX009 (ip), vehicle: other): 101 % of control
T/C (dose: 12.5 mg/kg/injection, schedule: Q01DX009 (ip), vehicle: other): 116 % of control
T/C (dose: 25.0 mg/kg/injection, schedule: Q01DX009 (ip), vehicle: other): 98 % of control
T/C (dose: 50.0 mg/kg/injection, schedule: Q01DX009 (ip), vehicle: other): 116 % of control
T/C (dose: 100.0 mg/kg/injection, schedule: Q01DX009 (ip), vehicle: other): 112 % of control

O=NN(CCF)C(=O)NC1CCCCC1
T/C (dose: 5.1 mg/kg/injection, schedule: Q01DX001 (ip), vehicle: other): 107 % of control
T/C (dose: 10.2 mg/kg/injection, schedule: Q01DX001 (ip), vehicle: other): 112 % of control
T/C (dose: 13.0 mg/kg/injection, schedule: Q01DX001 (ip), vehicle: Klucel (hydroxypropylcellulose) (HPC)): 104 % of control
T/C [2]: 111 % of control
T/C (dose: 21.6 mg/kg/injection, schedule: Q01DX001 (ip), vehicle: Klucel (hydroxypropylcellulose) (HPC)): 174 % of control
T/C (dose: 26.7 mg/kg/injection, schedule: Q01DX001 (ip), vehicle: Klucel (hydroxypropylcellulose) (HPC)): 115 % of control
T/C [4]: 180 % of control
T/C (dose: 43.2 mg/kg/injection, schedule: Q01DX001 (ip), vehicle: other): 180 % of control
T/C [5]: 168 % of control and 269 % of control
T/C [6]: 263 % of control
T/C (dose: 162.8 mg/kg/injection, schedule: Q01DX001 (ip), vehicle: other): 235 % of control

COC1=C(N2CC2)C(=O)C(OC)=C(N2CC2)C1=O
T/C [7]: 115 % of control
T/C [8]: 107 % of control
T/C [9]: 117 % of control
T/C [10]: 86 % of control

COc1cccc2c1C(=O)c1c(O)c3c(c(O)c1C2=O)C[C@@](O)(/C(C)=N/NC(=O)c1ccccc1)C[C@@H]3OC1CC(N)C(O)C(C)O1 (stereo partly drawn)
T/C [11]: 105 % of control
T/C [8]: 89 % of control
T/C [12]: 111 % of control
T/C [9]: 89 % of control and 95 % of control
T/C [13]: 109 % of control
T/C [10]: 93 % of control and 100 % of control
T/C (dose: 8.0 mg/kg/injection, schedule: Q01DX009 (ip), vehicle: saline): 99 % of control

CC(C)=CCC1=C(O)c2ccccc2C(=O)C1=O
T/C (dose: 32.0 mg/kg/injection, schedule: Q01DX005 (ip), vehicle: Klucel (hydroxypropylcellulose) (HPC)): 98 % of control
T/C (dose: 64.0 mg/kg/injection, schedule: Q01DX005 (ip), vehicle: Klucel (hydroxypropylcellulose) (HPC)): 90 % of control and 96 % of control
T/C (dose: 128.0 mg/kg/injection, schedule: Q01DX005 (ip), vehicle: Klucel (hydroxypropylcellulose) (HPC)): 87 % of control and 105 % of control
T/C (dose: 256.0 mg/kg/injection, schedule: Q01DX005 (ip), vehicle: Klucel (hydroxypropylcellulose) (HPC)): 90 % of control and 96 % of control

CCN(CC)CCCC(C)Nc1c2ccc(Cl)cc2nc2ccc(OC)cc12 (stereo not drawn)
T/C [11]: 96 % of control
T/C [12]: 151 % of control
T/C [13]: 122 % of control
T/C (dose: 8.0 mg/kg/injection, schedule: Q01DX009 (ip), vehicle: saline with Tween-80): 105 % of control and 107 % of control
T/C [1]: 105 % of control
T/C (dose: 32.0 mg/kg/injection, schedule: Q01DX009 (ip), vehicle: saline with Tween-80): 105 % of control
T/C (dose: 64.0 mg/kg/injection, schedule: Q01DX009 (ip), vehicle: saline with Tween-80): 112 % of control
